{"source": "patent US20220265817A1", "about": "“THERAPEUTIC COMPOSITIONS AND METHODS FOR TREATING HEPATITIS B” (priority 2017, published 2022)", "key": {"[1]": {"test_system": "D type HBV in primary human hepatocytes (HBeAg)", "assay": "microbe, parasite or virus in culture", "type": "cell-based", "conditions": "Hepatitis B virus, Hepatocyte", "how_it_was_run": "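HBeAg in day-8 culture supernatants was quantified by ELISA, and inhibition was calculated relative to DMSO-treated wells. Compounds were dosed from day 2 at seven 3-fold dilutions in triplicate, with medium changes every other day. The cells were Percoll-purified liver-perfusion hepatocytes infected with D-type HBV on day 1.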"}, "[2]": {"test_system": "D type HBV in primary human hepatocytes", "assay": "microbe, parasite or virus in culture", "type": "cell-based", "conditions": "3 replicates; Compound 24 0.00 nM; TDF nM: 10.00, 3.33, 1.11, 0.37, 0.12", "how_it_was_run": "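Supernatants collected on day 8 were assayed for HBV DNA by qPCR after compound exposure beginning day 2, with media and compound replaced every second day, in hepatocytes infected on day 1 with D type HBV. Dose-response: 7 points, 3-fold steps, triplicate; pairwise combinations tested as 5×5 matrix, synergy by MacSynergy.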"}, "[3]": {"test_system": "HBV rcDNA in HepDE19 cells", "assay": "HepDE19 cell culture system, rcDNA quantitation using bDNA assay, MacSynergy II", "type": "cell-based, human hepatoma cell line"}, "[4]": {"conditions": "Hepatitis B virus, HepDE19, read-out: ADDITIVE INHIBITION"}, "[5]": {"conditions": "Hepatitis B virus, HepDE19, read-out: AVERAGE % INHIBITION (rcDNA)"}}, "note": "Several values for one entry are separate records, joined by “and”; a condition that tells them apart may be missing. Equal values may be shown once. Read-outs that look alike come from different tables or passages of the source."}
{"smiles": "CC(C)OC(=O)OCOP(=O)(CO[C@H](C)Cn1cnc2c(N)ncnc21)OCOC(=O)OC(C)C.O=C(O)/C=C/C(=O)O", "note": "[TDF, tenofovir disoproxil fumarate, reference compound]", "values": [{"measurement": "inhibition at 0.00012 µM", "setting": "[1]; read-out: AVERAGE % INHIBITION HBeAg, TDF 0.12 nM alone", "result": 7.02, "unit": "%"}, {"measurement": "inhibition at 0.00012 µM", "setting": "[1]; read-out: AVERAGE % INHIBITION HBeAg, TDF 0.12 nM alone (compound 23 study)", "result": 4.4, "unit": "%"}, {"measurement": "inhibition at 0.00037 µM", "setting": "[1]; read-out: AVERAGE % INHIBITION HBeAg, TDF 0.37 nM alone", "result": 6.23, "unit": "%"}, {"measurement": "inhibition at 0.00037 µM", "setting": "[1]; read-out: AVERAGE % INHIBITION HBeAg, TDF 0.37 nM alone (compound 23 study)", "result": 6.74, "unit": "%"}, {"measurement": "inhibition at 0.00333 µM", "setting": "[1]; read-out: AVERAGE % INHIBITION HBeAg, TDF 3.33 nM alone", "result": 11.6, "unit": "%"}, {"measurement": "inhibition at 0.00333 µM", "setting": "[1]; read-out: AVERAGE % INHIBITION HBeAg, TDF 3.33 nM alone (compound 23 study)", "result": 9.05, "unit": "%"}, {"measurement": "inhibition at 0.01 µM", "setting": "[1]; read-out: AVERAGE % INHIBITION HBeAg, TDF 10.00 nM alone", "result": 6.07, "unit": "%"}, {"measurement": "inhibition at 0.01 µM", "setting": "[1]; read-out: AVERAGE % INHIBITION HBeAg, TDF 10.00 nM alone (compound 23 study)", "result": 0.72, "unit": "%"}, {"measurement": "EC50", "setting": "[1]; read-out: Inhibitor A EC50", "result": "> 100", "unit": "nM"}, {"measurement": "AVERAGE % INHIBITION HBV DNA", "setting": "[2]", "result": "−6.24% and −1.16% and −15.4% and 3.15%"}, {"measurement": "SYNERGY PLOT (99.9%) […]. 96%", "setting": "[3]", "result": 0}, {"measurement": "inhibition at 0.004 µM", "setting": "[3]; Hepatitis B virus, HepDE19", "result": -5.27, "unit": "%"}, {"measurement": "inhibition at 0.008 µM", "setting": "[3]; Hepatitis B virus, HepDE19", "result": 0.67, "unit": "%"}, {"measurement": "inhibition at 0.016 µM", "setting": "[3]; Hepatitis B virus, HepDE19", "result": 2.82, "unit": "%"}, {"measurement": "inhibition at 0.031 µM", "setting": "[3]; Hepatitis B virus, HepDE19", "result": 6.57, "unit": "%"}, {"measurement": "inhibition at 0.063 µM", "setting": "[3]; Hepatitis B virus, HepDE19", "result": 41.7, "unit": "%"}, {"measurement": "inhibition at 0.003906 µM", "setting": "[3]; [4]", "result": -5.27, "unit": "%"}, {"measurement": "inhibition at 0.00781 µM", "setting": "[3]; [4]", "result": 0.67, "unit": "%"}, {"measurement": "inhibition at 0.01563 µM", "setting": "[3]; [4]", "result": 2.82, "unit": "%"}, {"measurement": "inhibition at 0.03125 µM", "setting": "[3]; [4]", "result": 6.57, "unit": "%"}, {"measurement": "inhibition at 0.0625 µM", "setting": "[3]; [4]", "result": 41.7, "unit": "%"}, {"measurement": "inhibition at 0.125 µM", "setting": "[3]; [4]", "result": 66.1, "unit": "%"}, {"measurement": "inhibition at 0.25 µM", "setting": "[3]; [4]", "result": 81.5, "unit": "%"}, {"measurement": "inhibition at 0.5 µM", "setting": "[3]; [4]", "result": 90.8, "unit": "%"}, {"measurement": "inhibition at 1 µM", "setting": "[3]; [4]", "result": 94.5, "unit": "%"}, {"measurement": "inhibition at 0.125 µM", "setting": "[3]; [5]", "result": 66.1, "unit": "%"}, {"measurement": "inhibition at 0.25 µM", "setting": "[3]; [5]", "result": 81.5, "unit": "%"}, {"measurement": "inhibition at 0.5 µM", "setting": "[3]; [5]", "result": 90.8, "unit": "%"}, {"measurement": "inhibition at 1 µM", "setting": "[3]; [5]", "result": 94.5, "unit": "%"}, {"measurement": "EC50", "setting": "[3]; Hepatitis B virus, HepDE19, read-out: Inhibitor B EC50", "result": 89, "unit": "nM"}, {"measurement": "EC50", "setting": "[3]; Hepatitis B virus, HepDE19, rcDNA by bDNA assay, single agent, read-out: INHIBITOR B EC50", "result": 88, "unit": "nM"}]}
